Tests used:
Assay in all cases: relative viability (nuclei count vs DMSO), 5 days (fraction); higher = more cells survive
CUDC-101 + Bortezomib = compound: C#Cc1cccc(Nc2ncnc3cc(OC)c(OCCCCCCC(=O)NO)cc23)c1 [CUDC-101] + CC(C)C[C@H](NC(=O)[C@H](Cc1ccccc1)NC(=O)c1cnccn1)B(O)O [Bortezomib] (partner 0.002 µM)
How it was run: (§1)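 The day after seeding in 1536-well plates, lung cancer cell lines were treated by pin tool with a single drug, or with a fixed anchor-drug dose together with five library-drug doses (not always all listed) in √10 steps. After 5 days, a combined fix-and-stain solution (final 0.05% Triton X-100, 1% formaldehyde, 1 ug/ml Hoechst) was added. Nuclei counted on 4× images gave relative viability as treated counts over vehicle counts, reported as the median of duplicate plates.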

[1] = compound: C1=CC=C2C(=C1)N=C(S2)C(C#N)C3=NC(=NC=C3)NCCC4=CN=CC=C4 + Cc1nc(Nc2ncc(C(=O)Nc3c(C)cccc3Cl)s2)cc(N2CCN(CCO)CC2)n1 [Dasatinib] (partner 0.075 µM)
How it was run: as §1

NVP-TAE684 + Luminespib = compound: COc1cc(N2CCC(N3CCN(C)CC3)CC2)ccc1Nc1ncc(Cl)c(Nc2ccccc2S(=O)(=O)C(C)C)n1 [NVP-TAE684] + CCNC(=O)c1noc(-c2cc(C(C)C)c(O)cc2O)c1-c1ccc(CN2CCOCC2)cc1 [Luminespib] (partner 0.01 µM)
How it was run: as §1

NVP-TAE684 + Lapatinib = compound: COc1cc(N2CCC(N3CCN(C)CC3)CC2)ccc1Nc1ncc(Cl)c(Nc2ccccc2S(=O)(=O)C(C)C)n1 [NVP-TAE684] + CS(=O)(=O)CCNCc1ccc(-c2ccc3ncnc(Nc4ccc(OCc5cccc(F)c5)c(Cl)c4)c3c2)o1 [Lapatinib] (partner 2 µM)
How it was run: as §1

Cell Line	relative viability (CUDC-101 + Bortezomib; first compound 0.01 µM)	relative viability (CUDC-101 + Bortezomib; first compound 0.03162 µM)	relative viability (CUDC-101 + Bortezomib; first compound 0.1 µM)	relative viability (CUDC-101 + Bortezomib; first compound 0.3162 µM)	relative viability (CUDC-101 + Bortezomib; first compound 1 µM)	relative viability ([1]; first compound 0.005 µM)	relative viability ([1]; first compound 0.01581 µM)	relative viability ([1]; first compound 0.05 µM)	relative viability ([1]; first compound 0.1581 µM)	relative viability ([1]; first compound 0.5 µM)	relative viability (NVP-TAE684 + Luminespib; first compound 0.2 µM)	relative viability (NVP-TAE684 + Luminespib; first compound 0.6325 µM)	relative viability (NVP-TAE684 + Luminespib; first compound 2 µM)	relative viability (NVP-TAE684 + Lapatinib; first compound 0.2 µM)	relative viability (NVP-TAE684 + Lapatinib; first compound 0.6325 µM)	relative viability (NVP-TAE684 + Lapatinib; first compound 2 µM)
NCI-H647	1.08	0.948	0.871	0.724	0.119	0.128	0.188	0.219	0.24	0.135	0.133	0.108	0.264	1.34	1.02	0.686
NCI-H650	0.834	0.917	0.87	0.459	0.643	0.43		0.405	0.589	0.476	0.776	0.682	0.489		0.776	0.706
NCI-H661	1.09	0.664	0.892	0.928	0.8	0.778	0.785	0.817	0.917	0.805	1	0.883		0.518	0.51	0.493
NCI-H727	0.823	0.967	0.775	0.993	0.397		0.387	0.368	0.413	0.347	0.24	0.382	0.216	0.917	0.695	0.346
NCI-H838	0.872	0.728	0.879	1.25	0.533	0.204	0.28	0.325	0.264	0.262	0.27	0.275	0.282	1.12	0.758	0.287
NCI-H1355	1.31	1.17	1.24	1.18	1.03	0.674	0.66	0.699	0.772	0.478	0.594	0.687	0.471	1.18	0.855	0.636
NCI-H1437	0.547	0.483	0.398	0.693	0.284	0.363	0.303	0.528	0.562	0.376	1.14	1.13	1.08	0.874	0.729	0.418
NCI-H1563	0.842	0.712	0.948	0.916	0.792	0.536	0.413	0.426	0.44	0.473	0.542	0.548	0.407	0.95	0.858	0.655
NCI-H1650	0.179	0.216	0.202	0.194	0.163	0.449	0.278	0.324	0.372	0.263	0.184	0.206	0.182	0.958	0.684	0.347
NCI-H1651	1.04	0.946	0.957	0.912	0.921	0.307	0.35	0.587	0.393	0.3	1.24		0.693	0.998	0.834	0.563
NCI-H1666	0.967	0.824	0.805	0.867	0.721	0.603	0.754	0.734	0.838	0.818	0.945	0.975	0.843	0.588	0.447	0.283
NCI-H1734	1.12	0.919	0.874	0.956	0.478		0.476	0.479	0.605	0.401	0.221	0.164	0.166	1.26	0.983	0.698
NCI-H1755	0.985	1.06	0.88	0.933	0.79	0.365	0.397	0.404	0.456	0.384	0.304	0.272	0.445	0.996	1.06	0.891
NCI-H1792	0.98	0.965	0.918	0.952	0.965	0.722	0.83	0.837	1.29	0.665	0.396	0.411	0.359	0.913	0.825	0.89
NCI-H1915	1.01	1.01	0.982	0.936	0.836	0.36	0.294	0.28	0.335	0.357	0.631	0.821	0.699	1.02	1.01	0.948
NCI-H1975	0.418	0.361	0.427	0.362	0.165	0.352	0.333	0.35	0.37	0.24	0.23	0.138	0.167	0.734	0.791	0.318

Cell Line	relative viability (CUDC-101 + Bortezomib; first compound 0.01 µM)	relative viability (CUDC-101 + Bortezomib; first compound 0.03162 µM)	relative viability (CUDC-101 + Bortezomib; first compound 0.1 µM)	relative viability (CUDC-101 + Bortezomib; first compound 0.3162 µM)	relative viability (CUDC-101 + Bortezomib; first compound 1 µM)	relative viability ([1]; first compound 0.005 µM)	relative viability ([1]; first compound 0.01581 µM)	relative viability ([1]; first compound 0.05 µM)	relative viability ([1]; first compound 0.1581 µM)	relative viability ([1]; first compound 0.5 µM)	relative viability (NVP-TAE684 + Luminespib; first compound 0.2 µM)	relative viability (NVP-TAE684 + Luminespib; first compound 0.6325 µM)	relative viability (NVP-TAE684 + Luminespib; first compound 2 µM)	relative viability (NVP-TAE684 + Lapatinib; first compound 0.2 µM)	relative viability (NVP-TAE684 + Lapatinib; first compound 0.6325 µM)	relative viability (NVP-TAE684 + Lapatinib; first compound 2 µM)
NCI-H1993	1.19	1.12	0.782	0.995	0.611	0.565	0.607	0.487	0.673	0.536		0.785	0.499		0.77	0.7
NCI-H2009	1.01	1.04	1.05	1.04	0.889	0.257	0.25	0.261	0.324	0.267	0.925	1.05	0.944	0.938	0.888	0.731
NCI-H2023	0.932	0.935	1.08	1.26	0.844	0.454	0.519	0.504	0.78	0.364	0.792	0.828	0.215	1.1	0.622	0.193
NCI-H2085	1.07	1.08	0.97	1.06	0.915	0.277	0.216	0.236	0.237	0.219	0.435	0.39	0.294	0.788	0.632	0.648
NCI-H2087	0.813	0.871	0.614	0.754	0.445	0.72	0.927	0.81	1.09	0.651	0.146	0.205	0.151	1.36	1.02	0.986
NCI-H2126	1.12	1.14	1.1	1.08	1.01	0.603	0.543	0.573	0.584	0.49	0.94	0.845	0.398	0.755	0.719	0.55
NCI-H2228	1.11	1.2	1.18	0.97	0.279	0.295	0.491	0.442	0.514	0.423	0.142	0.116	0.0834	0.458	0.212	0.321
NCI-H2347	0.94	1.05	0.866	0.95	0.805	0.359	0.814	0.261	0.347	0.307	0.245	0.264	0.45	1	0.903	0.955
NCI-H2405	0.969	1.04	0.936	1.02	0.982	0.214	0.187	0.168	0.234	0.219	0.703	0.694	0.386	1.26	0.815	0.55
NCI-H3122	1.06	0.984	1.05	1.01	1.01	0.826	0.824	0.873	1.03	0.686	0.0817	0.0775	0.068	0.369	0.213	0.18
PC-3 [JPC-3]	0.885	0.927	0.779	0.642	0.629	0.877	1.07	0.962	1.08	0.73	0.614	0.639	0.601	0.472	0.446	0.387
PC-14	1.07	0.978	0.89	0.596	0.219	0.174	0.228	0.211	0.32	0.249	0.157		0.144	0.336	0.305	0.245
RERF-LC-KJ	1.2	1.07	1.09	1.14	0.97	0.796	0.863	0.756	0.952	0.527	1.65	1.21	0.587	0.871	0.867	0.905
SK-LU-1	1.55	1.03	1.48	0.829	0.976	0.174	0.184	0.189	0.188	0.199	0.188	0.217	0.167	0.98	0.873	0.486
SW 1573	1.23	1.13	1.13	1.27	0.914	0.587	0.44		0.494	0.324	0.185	0.0996	0.0857	1.16	1.12	1.13
